Assay results taken from patent US9737532B2, “Method of treating ischemia/reperfusion injury” (TOKYO UNIVERSITY OF SCIENCE FOUNDATION, priority 2011, dated 2017).
Where two headings read alike, the source gives them in different places. Where a SMILES comes first, the peptide text is derived from it. The star is where a group is joined. Cbz = O=C(OCc1ccccc1)*

Legend:
[1] = system: caspase-3; experiment: caspase-3 activation by Western blotting in mouse fibroblast cells; type: cell-based; settings: 24 hours
[2] = system: Parp1 mRNA; experiment: Parp1 mRNA by RT-PCR; type: cell-based, mouse; settings: 24 hours, FIG. 3A
Method: Cells were lyzed by RNAiso PLUS (TaKaRa, Japan), and then total RNA was purified using a FastPure RNA kit (TaKaRa, Japan) according to manufacturer's protocol. […] RNA was subjected to reverse transcription with PrimeScript Reverse Transcriptase (TaKaRa, Japan) and random hexamer (TaKaRa, Japan). The PCR reaction was performed using Platinum Taq DNA Polymerase High Fidelity (Invitrogen, USA) and Parp1 (forward, 5′-[…]-3′ (SEQ ID NO:6); reverse, 5′-[…]-3′ (SEQ ID NO:7)) or β-actin primers (forward, 5′-[…]-3′ (SEQ ID NO:8); reverse, 5′-[…]-3′ (SEQ ID NO:9)) as follows: initiation step, at 94° C. for 1 min; amplification step, 30 (Parp1) or 25 (β-actin) cycles of at 94° C. for 1 min, at 52° C. (Parp1) or 61° C. (β-actin) for 15 sec, at 68° C. for 15 sec; termination step, 68° C. 15 sec. PCR products were subjected to 1.8% agarose gel electrophoresis, stained with ethidium bromide, and visualized with LAS3000. The data was analyzed using MultiGauge software (FUJI FILM, Japan).

[3] = system: Parp1 protein; experiment: Parp1 protein levels by Western blotting in mouse cells; type: cell-based; settings: for Parp1 reduction, p53 dependency: MEFs from p53+/+ or −/− mice; for reduction in Parp1 protein: summary statement of the discussion; for basal Parp1 protein levels: MG132 alone, 5 μM
Excerpt: Mouse fibroblast cell line 3T3-L1, human lung cancer cell line A549, and human hepatoma cell line HepG2 were purchased from the RIKEN Bioresource Center (Japan). Mouse fibroblast cell line 3T3-F442A and human osteosarcoma cell line U2OS were purchased from the European Collection of Animal Cell Cultures (U.K.). p53 deficient mouse-derived fibroblast cell line HW (J. Med. Chem. (2010) 53, 4561-4584) was kindly provided by Dr. Masayuki Saito (Tenshi University, Japan). The cells were maintained in Dulbecco's modified Eagle's medium (low glucose) (WAKO, Japan) with 10% (3T3-L1, 3T3-F442A, HW, U2OS, and HepG2) or 5% (A549) fetal calf serum and 1% penicillin/streptomycin (SIGMA). Cpt and MG132 were purchased from WAKO (Japan).
We designed a mouse p53 shRNA expression vector based on target sequences for effective p53 knockdown, as previously reported (J. Biol. Chem. (2003) 278, 11731-11734). Two oligonucleotides, 5′-gatcccc[…]ttcaagaga[…]ttttt ggaaa-3′ (SEQ ID NO:1) and 5′-agcttttccaaaaa[…]tctcttgaa[…] ACggg-3′ (SEQ ID NO:2) (upper case letters, target sequences against p53; lower case letters, BgIII, HindIII or loop structure sequences) were chemically synthesized (Operon Biotechnology, USA). The annealed oligos were directly ligated into a BgIII and HindIII-digested pSUPER-puro shRNA expression vector gifted from Dr. Shigeo Ohno (Yokohama City University, Japan) (Cell Sci. (2006) 119, 2107-2118). The produced vector, termed pSUPER-puro-shmp53, was transfected with Lipofectamine LTX (Invitrogen, USA) into 3T3-L1 cells, according to the manufacturer's protocol. For stable p53 knockdown cell lines, the transfected cells were selected with puromycin and resistant clones were isolated by trypsinization using cloning cylinders.
p53 heterozygous mice (Accession Number, CDB 0001K) (Oncogene (1993) 8, 3313-3322) were purchased from RIKEN BRC (Saitama, Japan). p53 heterozygous males and females were crossed, and MEFs were prepared from the pregnant females. Each 13- to 15-day-old embryo was dissected from the uterus and washed with PBS. After removal of the head, tail, limbs, and blood-enriched organs, the trimmed embryo was washed with PBS and minced. After trypsinization at 37° C. for 10 min followed by inactivation of trypsin by addition of FCS, MEFs were separated by filtration through a cell-strainer. p53 status was confirmed by PCR using previously described primers (forward primer for p53 genomic sequence, 5′-[…]-3′ (SEQ ID NO:3); reverse primer for p53 genomic sequence, 5′-[…]-3′ (SEQ ID NO:4), forward primer for neo sequence, 5′-[…]-3′ (SEQ ID NO:5)) (Oncogene (1993) 8, 3313-3322), and the established MEFs were maintained in DMEM high glucose with 10% FCS, 2-mercaptoethanol (2-ME), and antibiotics.
Cells were lyzed by the addition of lysis buffer (50 mM Tris-HCl pH6.8, 2% SDS, 5% glycerol), boiled for 5 min, and sonicated. Protein concentrations of the soluble fraction were determined by BCA protein assay (PIERCE, USA) according to the manufacturer's protocol, and standardized by the addition of lysis buffer. Following this, the proteins were added to 2-ME and bromophenol blue so as to obtain final concentrations of 5% and 0.025%, respectively, and boiled for 5 min. Equal amounts of proteins (5 to 20 μg) were subjected to SDS-PAGE and transferred to nitrocellulose membranes. The membranes were blocked with 2.5% skim milk and 0.25% BSA in TBS (50 mM Tris, pH 7.4, 150 mM NaCl) containing 0.1% Tween 20 (TTBS) for 1 h at room temperature, and then probed with appropriate primary antibodies overnight at 4° C. or for 2 h at room temperature. As primary antibodies, anti-Parp1 (clone C-2-10, WAKO, Japan), anti-p53 (clone Ab-1, Calbiochem, USA), anti-βactin (clone AC-15, SIGMA, USA), or anti-caspase-3 (clone 1F3, MBL, Japan) antibodies were used. […]

[4] = system: Parp1; settings: cited from earlier work
[5] = system: Parp1 protein; experiment: Parp1 protein levels by Western blotting in human cell lines; type: cell-based
[6] = system: 3T3-L1 cells
[7] = system: p53; experiment: p53 protein stabilization by Western blotting in mouse fibroblast cells; type: cell-based; settings: for p53 accumulation: summary statement of the discussion; for p53 stabilization: 24 hours, FIG. 1A; for p53 protein stabilization: 8 hours, FIG. 4A
[8] = 3T3-F442A cells, 8 hours, FIGS. 4A and 4B
[9] = 3T3-F442A cells, 24 hours, FIGS. 1A and 1B
[10] = 3T3-L1 cells, 8 hours, FIGS. 4A and 4B
[11] = 3T3-L1 cells, 24 hours, FIGS. 1A and 1B

COc1ccc(C2=N[C@@H](c3ccc(Cl)cc3)[C@@H](c3ccc(Cl)cc3)N2C(=O)N2CCNC(=O)C2)c(OC(C)C)c1 [Nutlin3a]
caspase-3 activation ([1]; 3T3-F442A cells): no caspase-3 activation | caspase-3 activation ([1]; 3T3-L1 cells): no caspase-3 activation | Parp1 mRNA ([2]; p53 deficient cell lines (3T3-L1/shp53 and HW)): did not change | Parp1 mRNA ([2]; p53 proficient cell lines (3T3-L1 and 3T3-F442A)): did not change | Parp1 protein levels [3, 8]: markedly decreased the Parp1 protein levels | Parp1 protein levels [3, 9]: markedly decreased it | decrease in Parp1 ([3]; 3T3-L1/shp53 cells (p53 stable knockdown), FIG. 2B): diminished significantly | decrease in Parp1 ([3]; 3T3-L1 cells with shRNA-mediated transient knockdown of p53, FIG. 2A): attenuated the decrease in Parp1 | Parp1 protein levels [3, 10]: markedly decreased the Parp1 protein levels | Parp1 protein levels [3, 11]: markedly decreased it | Parp1 protein, time course ([3]; 3T3-L1 or 3T3-F442A cells, 25 μM for 8 h, FIG. 1C): Parp1 protein diminished | decrease in Parp1 ([3]; HW cells (p53 deficient), FIG. 2B): diminished significantly | Parp1 reduction, p53 dependency ([3]; 24 hours, FIG. 2C): reduces the Parp1 protein levels in a p53-dependent manner | levels of full length of Parp1 protein ([3]; Nutlin3a-treated 3T3-L1, first observation): significant reduction in the levels of full length of Parp1 protein without cleavage into p85 and p25 apoptotic fragments | cleavage of Parp1 ([4]; human colon cancer cell line HCT116): induces cleavage of Parp1 into two apoptotic fragments | cleavage of Parp1 ([4]; human myeloid leukemia cell line ML-1): induces cleavage of Parp1 into two apoptotic fragments | Nutlin3a-induced Parp1 decrease ([5]; A549 cells, 24 h, FIG. 1D): detected the Nutlin3a-induced Parp1 decrease in only A549 cells | reduction in Parp1 protein ([5]; HCT116 cells, various doses of Nutlin3a, data not shown): no significant reduction in Parp1 protein other than apoptotic cleavage | cell viability (trypan blue exclusion) [6]: the cells were viable

N.N.[Cl][Pt][Cl] [cisplatin]
p53 accumulation [7]: induced p53 accumulation | Parp1 protein levels ([3]; cisplatin treatment, data not shown): did not affect Parp1 protein levels | reduction in Parp1 protein [3]: did not evoke a significant reduction in Parp1 protein

CC[C@@]1(O)C(=O)OCc2c1cc1n(c2=O)Cc2cc3ccccc3nc2-1 [Cpt, camptothecin]
caspase-3 activation ([1]; 3T3-F442A cells): no caspase-3 activation | caspase-3 activation ([1]; 3T3-L1 cells): no caspase-3 activation | p53 stabilization ([7]; 3T3-F442A cells): induced p53 stabilization | p53 stabilization ([7]; 3T3-L1 cells): induced p53 stabilization | p53 accumulation [7]: induced p53 accumulation | Parp1 protein levels [3, 9]: did not alter the Parp1 protein levels | Parp1 protein levels [3, 11]: did not alter the Parp1 protein levels | reduction in Parp1 protein [3]: did not evoke a significant reduction in Parp1 protein

CC(C)C[C@@H](C=O)NC(=O)[C@H](CC(C)C)NC(=O)[C@H](CC(C)C)NC(=O)OCc1ccccc1 [MG132] (Cbz-Leu-Leu-Leu-aldehyde)
p53 accumulation [7]: induced p53 accumulation | effect on Caylin2-induced reduction in Parp1 ([3]; 5 μM MG132 with 20 μM Caylin2, 8 hours, 3T3-L1 cells, FIG. 6B): clearly inhibited the Caylin2-induced reduction in Parp1 | effect on Nutlin3a-induced reduction in Parp1 ([3]; 5 μM MG132 with 25 μM Nutlin3a, 8 hours, 3T3-L1 and 3T3-F442A cells, FIG. 3B): clearly inhibited the Nutlin3a-induced reduction in Parp1 | basal Parp1 protein levels ([3]; 8 hours, 3T3-L1 and 3T3-F442A cells, FIG. 3B): did not affect basal Parp1 protein levels | basal Parp1 protein levels ([3]; 8 hours, 3T3-L1 cells, FIG. 6B): did not affect basal Parp1 protein levels | reduction in Parp1 protein [3]: did not evoke a significant reduction in Parp1 protein

COc1ccc(C2=N[C@H](c3ccc(C(F)(F)F)cc3)[C@H](c3ccc(C(F)(F)F)cc3)N2C(=O)N2CCNC(=O)C2)c(OC(C)C)c1 [Caylin2]
p53 protein stabilization ([7]; 3T3-F442A cells): induced p53 protein stabilization | p53 protein stabilization ([7]; 3T3-L1 cells): induced p53 protein stabilization | Parp1 cleavage / Parp1 protein ([3]; 20 μM Caylin2, 8 hours): induced Parp1 protein decrease without any trace of its apoptotic cleavage | Parp1 cleavage / Parp1 protein ([3]; 100 μM Caylin2, 8 hours): induced Parp1 cleavage | Parp1 protein levels [3, 8]: markedly decreased the Parp1 protein levels | Parp1 protein levels [3, 10]: markedly decreased the Parp1 protein levels | Parp1 reduction, p53 dependency ([3]; 8 hours, FIGS. 5A and 5B): reduces the Parp1 protein levels in a p53-dependent manner
